Like-named read-outs stand apart in the source and are kept apart here.
How the values were obtained:
IFNγR1 [1] = target: T1, IFNγR1 (Homo sapiens, UniProt P15260); conditions: 10 μM CF, 3 h, intact NK92 cells
Target sequence in this assay (P15260 18-489): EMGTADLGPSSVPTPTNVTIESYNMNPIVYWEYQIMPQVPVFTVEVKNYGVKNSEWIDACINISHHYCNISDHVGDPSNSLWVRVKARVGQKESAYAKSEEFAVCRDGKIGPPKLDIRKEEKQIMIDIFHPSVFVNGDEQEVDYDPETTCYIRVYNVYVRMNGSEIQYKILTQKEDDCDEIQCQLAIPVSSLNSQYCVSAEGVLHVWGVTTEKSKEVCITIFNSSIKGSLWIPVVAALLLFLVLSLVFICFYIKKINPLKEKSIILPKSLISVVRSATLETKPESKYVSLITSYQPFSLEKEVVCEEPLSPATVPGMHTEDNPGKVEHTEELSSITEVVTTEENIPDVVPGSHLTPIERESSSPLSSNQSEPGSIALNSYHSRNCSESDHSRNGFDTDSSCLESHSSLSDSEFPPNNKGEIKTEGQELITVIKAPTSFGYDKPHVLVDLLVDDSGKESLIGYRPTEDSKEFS

IFNγR1 [2] = target: T1, IFNγR1; assay: biochemical
Target sequence in this assay (P15260 18-489 limits assumed): as the sequence (P15260 18-489) above

[3] = target: interferon γ receptor 1 protein (immobilised for SPR) (UniProt P15260); assay: SPR
[4] = target: interferon γ receptor 1 protein (immobilised for SPR) (UniProt P15260); assay: SPR; remark: listed apart in the source

Sequence of interferon γ receptor 1 protein (immobilised for SPR) (P15260 18-489): as above
Sequence of interferon γ (P01579 24-161): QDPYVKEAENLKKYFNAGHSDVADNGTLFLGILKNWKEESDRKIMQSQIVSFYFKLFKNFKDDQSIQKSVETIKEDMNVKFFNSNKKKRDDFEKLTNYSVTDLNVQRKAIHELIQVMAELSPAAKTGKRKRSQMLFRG

Kd (IFNγR1 [2]) | Kd [3] | Kd [4] | Molecule | thermal stability (CETSA) (IFNγR1 [1])
500 nM | – | – | COc1cc(/C=C/C(=O)O[C@H]2CC[C@]34C[C@]35CC[C@]3(C)[C@@H]([C@H](C)CCC=C(C)C)CC[C@@]3(C)[C@@H]5CC[C@H]4C2(C)C)ccc1O [CF, Cycloartenyl ferulate] | When treated with CF, the thermal stability of IFNγR1 was significantly increased
– | 2.8 nM | 4.5 nM | interferon γ (from UniProt P01579 24-161) (ligand) | –
